Measurements reported in article PMC8705409, “Synthesis of sp^2-Iminosugar Selenoglycolipids as Multitarget Drug Candidates with Antiproliferative, Leishmanicidal and Anti-Inflammatory Properties” (Molecules, 2021).
“Also recorded” adds a separate entry of the source. Like-named read-outs stand apart in the source and are kept apart here.

Assays:
[1] = system: T-47D (breast) human solid tumor cell line; assay: Antiproliferative SRB assay (HTS), T-47D; format: cell-based; details: T47D, 48 h
Method: (§1) All reagents were used as purchased from commercial suppliers without further purification. The human solid tumor cell lines used in this study were: A549, SW1573 (lung), HBL-100, T-47D (breast), HeLa (cervix) and WiDr (colon). These cell lines were a kind gift from Prof. G.J. Peters (VU Medical Center, Amsterdam, The Netherlands).
(§2) Cells were inoculated onto 96-well microtiter plates in a volume of 100 μL per well at densities of 2500 (A549, HBL-100, HeLa, and SW1573) and 5000 (T-47D and WiDr) cells per well, based on their doubling times. Compounds were initially dissolved in DMSO at 400 times the desired final maximum test concentration. Control cells were exposed to an equivalent concentration of DMSO (0.25% v/v, negative control). Each agent was tested in triplicate at different dilutions in the range of 1–100 μM. The drug treatment started on day 1 after plating. Drug incubation times were 48 h, after which cells were precipitated with 25 μL ice-cold TCA (50% w/v) and fixed for 60 min at 4 °C. Then the SRB assay was performed. The optical density (OD) of each well was measured at 530 nm, using BioTek’s PowerWave XS Absorbance Microplate Reader. Values were corrected for background OD from wells only containing medium. The antiproliferative activity for each compound, expressed as GI50 values, was calculated according to NCI formulas.

[2] = system: human solid tumor cell lines A549, SW1573, HBL-100, T-47D, HeLa, WiDr; assay: Antiproliferative SRB assay (HTS), whole panel of six cell lines; format: cell-based; details: for GI50: Homo sapiens, range over the six tumor cell lines, read-out: GI50 against all the cell lines tested
Method: as §1, §2

[3] = Cellular toxicity, MTT assay, MRC-5; format: cell-based; details: human, maximal concentration 200 µM, read-out: EC50 MRC-5 Cell Line (cytotoxicity)
Method: (§3) Human myelomonocytic cell line THP-1 was grown at 37 °C and 5% CO2 in RPMI-1640 supplemented with 10% iFBS, 2 mM […], 100 U/mL penicillin and 100 μg/mL streptomycin. 3 × 10^4 cells/well in 96-well plates were differentiated to macrophages with 20 ng/mL of PMA treatment for 48 h followed by 24 h of culture in fresh medium. MRC5 cells were grown at 37 °C and 5% CO2 in DMEM complete media. 4000 cells/well in 96-well plates were incubated for 24 h at 37 °C and 5% CO2.
(§4) Cellular toxicity of all compounds was determined using the colorimetric MTT-based assay after incubation at 37 °C for 72 h in the presence of increasing concentrations of compounds (final maximal concentrations 200 µM). The results are expressed as EC50 values, as the concentration of the compound that reduce cell growth by 50% versus untreated control cells. Assays were performed in triplicate.

[4] = system: intracellular amastigotes of Leishmania donovani HU3; assay: Susceptibility of intracellular Leishmania amastigotes (luciferase) in THP-1 macrophages; format: cell-based; details: L. donovani HU3 in macrophage-differentiated THP-1, 72 h, threshold 20 μM
Method: Macrophage-differentiated-THP-1 cells, which are considered a suitable model for human macrophages, were plated at a density of 3 × 10^4 macrophages/well in 96-well white polystyrene microplates, and were infected at a macrophage/parasite ratio of 1:10 with L. donovani HU3 promastigotes. 24 h after infection at 35 °C and 5% CO2, extracellular parasites were removed by washing with serum-free medium. Infected cell cultures were then incubated at different compound concentrations in RPMI 1640 medium plus 10% iFBS at 37 °C with 5% CO2 for 72 h. To determine the susceptibility of L. donovani-LUC amastigotes, infected macrophages maintained in 96-well plates were lysed and then luminescence intensity was measured as indicative of the intracellular parasite growth, using the Luciferase Assay System Kit (Promega, Madison, WI, USA) according to the instructions of the supplier.

[5] = system: A549 (lung) human solid tumor cell line; assay: Antiproliferative SRB assay (HTS), A549; format: cell-based; details: 48 h
Method: as §1, §2

[6] = system: SW1573 (lung) human solid tumor cell line; assay: Antiproliferative SRB assay (HTS), SW1573; format: cell-based; details: 48 h
Method: as §1, §2

[7] = system: HeLa (cervix) human solid tumor cell line; assay: Antiproliferative SRB assay (HTS), HeLa; format: cell-based; details: 48 h
Method: as §1, §2

[8] = system: HBL-100 (breast) human solid tumor cell line; assay: Antiproliferative SRB assay (HTS), HBL-100; format: cell-based; details: 48 h
Method: as §1, §2

[9] = Cellular toxicity, MTT assay, THP-1; format: cell-based; details: human, maximal concentration 200 µM, read-out: EC50 THP-1 Cell Line (cytotoxicity)
Method: as §3, §4

[10] = system: WiDr (colon) human solid tumor cell line; assay: Antiproliferative SRB assay (HTS), WiDr; format: cell-based; details: 48 h
Method: as §1, §2

[11] = system: nitrite production in Bv.2 microglial cells; assay: Nitrite production in LPS-stimulated Bv.2 cells (Griess method); format: cell-based, mouse; details: LPS 200 ng/mL, 24 h
Method: (§5) Mouse microglia Bv.2 cell line was supplied by Dr. M.L. Nieto (IBGM, Valladolid, Spain). Bv.2 cells were cultured at 37 °C in a humidified atmosphere with 5% CO2 in RPMI supplemented with 10% (v/v) heat-inactivated FBS, 1% (v/v) penicillin/streptomycin (Sigma) and 2 mM L-glutamine (Gibco, Carlsbad, CA, USA). Cells were grown up to 70% confluence and then washed twice with PBS and further cultured in serum-free medium and stimulated with LPS (200 ng/mL) with or without 14/10 (0.1–50 µM) for 24 h.
Nitrite levels were measured by using the Griess method. Briefly, nitrites turn into a pink compound in contact with an acid solution containing 1% sulphanilamide and 0.1% N-(1-naphthyl)ethylenediamine (NEDA), and can be quantified by a colorimetric method at 540 nm in a microplate reader (Versamax Tunable Microplate reader, Molecular Devices, Sunnyvaley, CA, USA).

Bv.2 microglia cells = assay: Cellular viability by crystal violet staining; format: cell-based, mouse; details: Bv.2 cells, 24 h, different concentrations
Method: as §5
After cell treatments, the medium was discarded, and the remaining viable adherent cells were stained with crystal violet (0.2% w/v in 2% ethanol) for 20 min. After this time, plates were rinsed with tap water and allowed to dry, and 1% SDS was added to solubilize them. The absorbance of each plate was read spectrophotometrically at 560 nm.

[12] = system: arginase-1 expression in Bv.2 microglial cells; assay: Arginase-1 levels (Western blot); format: cell-based, mouse; details: Bv.2 cells, absence or presence of LPS 200 ng/mL; 10 at 10 μM, 14 at 50 μM
Method: as §5
(§6) Bv.2 microglial cells were homogenized in lysis buffer containing 50 mM Tris-HCl, pH 7.4, 150 mM NaCl, 1 mM Na3VO4, 1 mM NaF, 1 mM EGTA, […] and 0.25% (w/v) sodium deoxycholate, supplemented with protease inhibitors (10 µg/mL leupeptin, 10 µg/mL aprotinin, and 100 µg/mL phenylmethylsulphonyl fluoride). All debris was removed by centrifugation at 14,000× g for 10 min at 4 °C and protein concentration was quantified using the Bio-Rad protein assay with BSA as a standard. Equivalent amounts of protein were resolved using denaturing sodium dodecyl sulphate-polyacrylamide gel electrophoresis (SDS-PAGE), followed by transfer to PVDF membranes (Bio-Rad). […]
(§7) Densitometry of the Western blots was performed using the ImageJ program. […] Data were analyzed by one-way ANOVA followed by Bonferroni t-test or by paired t-test when comparisons were among two groups. […]

[13] = system: iNOS expression in Bv.2 microglial cells; assay: LPS-induced iNOS protein expression (Western blot); format: cell-based, mouse; details: Bv.2 cells, LPS 200 ng/mL
Method: as §5, §6, §7

[14] = system: human solid tumor cell lines A549, SW1573, HBL-100, T-47D, HeLa, WiDr; design: method as in PMID 28728108; details: same assay; read-out: GI50 of reference agent in the same assay; cited from earlier work
[15] = THP-1 cells differentiated to macrophages with PMA

SMILES	GI50 [1] [µM]	GI50 [2] [µM]	EC50 at 72 h ([3]; MRC-5 cells) [µM]	EC50 [4] [µM]	GI50 [5] [µM]	GI50 [6] [µM]	GI50 [7] [µM]	GI50 [8] [µM]	EC50 at 72 h [9, 15] [µM]	GI50 [10] [µM]	concentration at which nitrite production reached basal level [11] [µM]	EC50 at 72 h [3] [µM]	effect on cellular viability (Bv.2 microglia cells)	induction of arginase-1 [12]	EC50 at 72 h [9] [µM]	effect on LPS-elicited enhancement of iNOS ([13]; compound at 10 μM)	iNOS increase remaining after treatment (LPS alone 20-fold) ([13]; compound at 50 μM (five-fold higher concentration))	antiproliferative activity ([2]; panel of six tumor cell lines)	GI50 [14] [µM]
CCCCCCCCN[C@@H]1[C@H](O)[C@@H](O)[C@H](O)[C@H]2COC(=O)N21 [Compound 11, (1S)-1-amino-N-octyl-5N,6O-oxomethylidene-1-deoxynojirimycin]	> 100	> 100	155 ± 5.3	> 20	> 100	> 100	> 100	> 100	209 ± 10.3	> 100	–	–	–	–	–	–	–	–	–
CCCCCCCCCCCC[Se][C@@H]1[C@H](O)[C@@H](O)[C@H](O)[C@H]2COC(=O)N21 [Compound 10, (1R)-1-Dodecylseleno-5N,6O-oxomethylidenenojirimycin]	21	16 to 28	–	13.4 ± 1.63	18	28	22	24	–	22	10	31.2 ± 1.61	none of the concentrations used induced a negative effect	direct effect on the induction of arginase-1	84.25 ± 0.06	fully abrogated	–	–	–
CCCCCCCCCCCCN[C@@H]1[C@H](O)[C@@H](O)[C@H](O)[C@H]2COC(=O)N21 [Compound 12, (1S)-1-Amino-N-dodecyl-5N,6O-oxomethylidene-1-deoxynojirimycin]	23	18 to 30	49.6 ± 4.2	> 20	18	30	23	23	122 ± 13.3	22	–	–	–	–	–	–	–	–	–
CCCCCCCCCCCCS[C@@H]1[C@H](O)[C@@H](O)[C@H](O)[C@H]2COC(=O)N21 [Compound 14, (1R)-1-dodecylthio-5N,6O-oxomethylidenenojirimycin]	18	16 to 28	43.1 ± 9.83	> 20	16	18	17	17	70.5 ± 3.75	18	50	–	none of the concentrations used induced a negative effect	did not induce arginase-1 expression	–	–	about 8 fold	–	–
O=C1OC[C@@H]2[C@@H](O)[C@H](O)[C@@H](O)[C@@H]([Se]c3ccccc3)N12 [Compound 8, (1R)-1-Phenylseleno-5N,6O-oxomethylidenenojirimycin]	> 100	–	–	> 20	> 100	> 100	> 100	> 100	–	> 100	–	172 ± 27	–	–	> 200	–	–	lack of activity; also recorded: inactive	–
CCCCCCCCCCCCCCCCOP(=O)([O-])OCC[N+](C)(C)C [Miltefosine, reference compound]	–	–	57.6 ± 6.38	0.44 ± 0.08	–	–	–	–	26.9 ± 3.08	–	–	–	–	–	–	–	–	–	–
CCCCCCCCS[C@@H]1[C@H](O)[C@@H](O)[C@H](O)[C@H]2COC(=O)N21 [Compound 13, (1R)-1-octylthio-5N,6O-oxomethylidenenojirimycin]	95	≥ 36	58.1 ± 12.6	> 20	58	> 100	92	73	122 ± 5.79	89	–	–	–	–	–	–	–	–	–
CCCCCCCC[Se][C@@H]1[C@H](O)[C@@H](O)[C@H](O)[C@H]2COC(=O)N21 [Compound 9, (1R)-1-Octylseleno-5N,6O-oxomethylidenenojirimycin]	71	≥ 36	–	> 20	36	> 100	49	> 100	–	64	–	94.3 ± 4.95	–	–	> 200	–	–	–	–
O=c1[nH]cc(F)c(=O)[nH]1 [Compound 5-FU, 5-fluorouracyl]	–	–	–	–	–	–	–	–	–	–	–	–	–	–	–	–	–	–	5 to 50
